Assay results reported in patent US4495202A, “Terphenyl derivatives and pharmaceutical uses thereof” (Eli Lilly and Company, priority 1983, dated 1985).
Where two headings read alike, the source gives them in different places.

Legend:
[1] = test system: Cox standard strain albino male mice; test: standard mouse writhing assay (acetic acid-induced writhing); assay type: in vivo
Procedure: The analgesic activity of a number of compounds provided by this invention has been determined in the standard mouse writhing assay. Writhing, which is characterized by contraction of the abdominal musculature, extension of the hindlegs, and rotation of the trunk, was induced in Cox standard strain albino male mice. […] Each treatment group consisted of five mice. The total number of writhes for the treatment group was determined during a 10-minute observation starting five minutes after acetic acid administration. […] Table I which follows presents typical test results obtained with certain of the compounds of this invention. The results in the mouse writhing assay are presented as the effective oral (p.o.) dose in mg./kg. of the tested compound required to inhibit induced writhing in the test animals by fifty percent (ED50).

[2] = test system: male Lewis-Wistar rats; test: Established adjuvant-induced arthritis test in rats; assay type: in vivo; settings: rat, days 15-29, from areas under the curves of uninjected paw volume
[3] = 3 h, oral gavage in corn oil-acacia emulsion (5%), three hours before acetic acid (0.60 percent, i.p.), inhibition of writhing by fifty percent, read-out: Mouse Writhing ED50
[4] = 25 mg./kg. p.o. × 15, corn oil-acacia emulsion by gavage
[5] = 10 mg./kg. p.o. × 15, corn oil-acacia emulsion by gavage

SMILES	ED50 [1, 3] [mg/kg]	ED50 ([1]; 4 h, oral, at four hours post dosing, read-out: Mouse Writhing ED50 at four hours post dosing) [mg/kg]	% Inhibition of Uninjected Paw Volume Inflammation, Days 14 through 30 [2, 4] [%]	% Inhibition of Uninjected Paw Volume Inflammation, Days 14 through 30 [2, 5] [%]
COc1ccc(-c2ccc(-c3ccc(F)cc3)cc2-c2ccc(OC)cc2)cc1 [Example 1, 4'-(4-Fluorophenyl)-4,4"-dimethoxy-1,1':2',1"-terphenyl]	11.8	3.9	55	
COc1ccc(-c2ccc(-c3ccccc3)cc2-c2ccc(OC)cc2)cc1 [Example 2, 4'-Phenyl-4,4"-dimethoxy-1,1':2',1"-terphenyl]	14.6		13	
COc1ccc(-c2ccc(-c3ccc(Cl)cc3)cc2-c2ccc(OC)cc2)cc1 [Example 3, 4'-(4-Chlorophenyl)-4,4"-dimethoxy-1,1':2',1"-terphenyl]	14.2		52	31
COc1ccc(-c2ccc(-c3ccc(Br)cc3)cc2-c2ccc(OC)cc2)cc1 [Example 4, 4'-(4-Bromophenyl)-4,4"-dimethoxy-1,1':2',1"-terphenyl]	72.8		34	
COc1ccc(-c2ccc(-c3cccc(F)c3)cc2-c2ccc(OC)cc2)cc1 [Example 5, 4'-(3-Fluorophenyl)-4,4"-dimethoxy-1,1':2',1"-terphenyl]	8.9		40	
COc1ccc(-c2ccc(C(F)(F)F)cc2-c2ccc(OC)cc2)cc1 [Example 6, 4'-Trifluoromethyl-4,4"-dimethoxy-1,1':2',1"-terphenyl]	5.6			48
